“Also recorded” adds a separate entry of the source.
Assays:
[1] = system: NCI-H460 cells; assay: MTT assay, cell growth inhibition, NCI-H460; format: cell-based; conditions: Homo sapiens, 72 h, three independent experiments
Method: (§1) A series of 3-aryl-naphtho[2,3-d]isoxazole-4,9-diones were synthesized (Scheme 1, Figure 1) and their growth inhibition activity was tested in vitro on human non-small cell lung carcinoma NCI-H460, colorectal carcinoma DLD1 and their corresponding MDR cells (NCI-H460/R and DLD1-TxR, respectively), as well as normal embryonic lung fibroblasts MRC-5. The differences in cell growth inhibition between cancer and normal cells obtained by the MTT assay after 72 h treatment are presented in Table 1. The effect of compounds is presented as IC50 values that correspond to the 50% of cell growth inhibition.
(§2) Cell viability was assessed by the MTT assay (AppliChem GmbH, Darmstadt, Germany). Cells grown in 25 cm^2 tissue flasks were trypsinized and 1000 cells/well were seeded into flat-bottomed 96-well tissue culture plates and incubated overnight. Subsequently, the cells were treated with increasing concentrations of Hsp90 inhibitors for 72 h: compound 3 (0.1–2.5 µM), compound 4 (0.25–5 µM), compound 5 (0.5–25 µM), compound 6 (50–1000 nM), compound 7 (10–250 nM), compound 8 (0.25–5 µM), compound 9 (10–250 nM), compound 10 (0.5–25 µM), compound 13 (0.5–10 µM), compound 14 (1–25 µM), and compound 15 (10–250 nM). […] After treatment, MTT was added to each well in a final concentration of 0.2 mg/mL for 4 h. Formazan product was dissolved in 200 µl of DMSO, and the absorbance was measured at 540 nm using an automatic LKB 5060-006 Micro Plate Reader (Vienna, Austria). IC50 value was defined as a concentration of the drug that inhibited cell growth by 50% and was calculated by nonlinear regression analysis using GraphPad Prism 6.0 for Windows (La Jolla, CA, USA). Relative selectivity towards cancer cells was calculated as a relation between IC50 value obtained in MRC-5 cells and an average IC50 value from four tested cancer cell lines.

[2] = system: DLD1 cells; assay: MTT assay, cell growth inhibition, DLD1; format: cell-based; conditions: Homo sapiens, DLD-1, 72 h
Method: as §1, §2

[3] = system: Hsp90; set-up: method as in PMID 22538015; conditions: read-out: Hsp90 Affinity binding; cited from earlier work
[4] = molecular target: T1, P-gp (Homo sapiens, UniProt P08183); assay: P-gp ATPase activity assay (Pgp-Glo); format: biochemical; set-up: purchased Promega; conditions: 5: 5, 10, 20 µM; 7 and 9: 100, 250, 500 nM; Figure 5a
T1 sequence (P08183 whole entry): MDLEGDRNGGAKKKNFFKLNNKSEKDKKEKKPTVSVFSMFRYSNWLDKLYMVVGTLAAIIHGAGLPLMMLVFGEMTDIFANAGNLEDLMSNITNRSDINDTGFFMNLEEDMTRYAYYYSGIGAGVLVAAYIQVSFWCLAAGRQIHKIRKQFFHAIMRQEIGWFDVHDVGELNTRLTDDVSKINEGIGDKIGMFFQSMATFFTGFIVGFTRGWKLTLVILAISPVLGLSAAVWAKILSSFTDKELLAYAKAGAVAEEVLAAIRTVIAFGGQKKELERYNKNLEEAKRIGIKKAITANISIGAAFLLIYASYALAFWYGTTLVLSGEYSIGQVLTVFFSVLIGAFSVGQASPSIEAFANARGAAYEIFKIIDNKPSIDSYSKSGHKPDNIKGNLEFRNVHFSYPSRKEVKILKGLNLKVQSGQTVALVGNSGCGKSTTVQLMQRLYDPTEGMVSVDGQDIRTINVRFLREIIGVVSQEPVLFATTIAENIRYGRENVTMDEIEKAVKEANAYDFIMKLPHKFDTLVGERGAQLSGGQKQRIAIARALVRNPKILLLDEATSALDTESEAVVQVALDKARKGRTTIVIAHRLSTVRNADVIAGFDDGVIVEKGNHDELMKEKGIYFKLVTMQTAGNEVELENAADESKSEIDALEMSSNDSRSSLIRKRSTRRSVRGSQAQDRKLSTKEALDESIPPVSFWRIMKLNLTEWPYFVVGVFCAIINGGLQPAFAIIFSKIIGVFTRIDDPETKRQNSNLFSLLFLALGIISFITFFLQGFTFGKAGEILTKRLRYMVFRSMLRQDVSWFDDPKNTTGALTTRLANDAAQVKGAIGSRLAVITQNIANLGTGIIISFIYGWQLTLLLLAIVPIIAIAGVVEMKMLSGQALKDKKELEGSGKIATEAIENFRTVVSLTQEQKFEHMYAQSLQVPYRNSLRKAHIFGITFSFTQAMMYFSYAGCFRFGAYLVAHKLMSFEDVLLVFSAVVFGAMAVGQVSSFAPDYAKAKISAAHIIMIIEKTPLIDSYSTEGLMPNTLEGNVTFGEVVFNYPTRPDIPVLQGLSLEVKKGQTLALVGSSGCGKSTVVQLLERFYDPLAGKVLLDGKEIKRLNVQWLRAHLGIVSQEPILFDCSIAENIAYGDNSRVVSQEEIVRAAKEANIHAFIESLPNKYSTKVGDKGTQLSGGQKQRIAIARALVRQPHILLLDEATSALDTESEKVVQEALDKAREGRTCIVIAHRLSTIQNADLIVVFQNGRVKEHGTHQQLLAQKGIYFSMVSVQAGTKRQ
Method: P-gp relies on the ATP hydrolysis energy to extrude the substrate outside the cell and compounds that interact with P-gp can stimulate or inhibit its ATPase activity. Compounds that are P-gp substrates usually stimulate its ATPase activity. Pgp-Glo™ assay system (Promega, Madison, WI, USA) detects the compound’s effect on recombinant human P-gp in a cell membrane fraction. P-gp ATPase activity was measured using luminescent Pgp-Glo™ assay kit according to manufacturer’s instructions. Briefly, ATP was first incubated with P-gp; then the P-gp ATPase reaction was stopped, and the remaining unmetabolized ATP was detected as a luciferase-generated luminescent signal. Pgp-dependent decreases in luminescence reflect ATP consumption by P-gp; thus, the greater the decrease in signal, the higher the P-gp activity. […] Verapamil and sodium orthovanadate, supplied in the assay kit were used as positive controls. Verapamil is a P-gp substrate and competitive inhibitor, and sodium orthovanadate is a noncompetitive inhibitor of P-gp ATPase activity. The luminescence of samples treated with increasing concentrations of compound 5 (5 µM, 10 µM and 20 µM), compound 7 (100 nM, 250 nM and 500 nM) and compound 9 (100 nM, 250 nM and 500 nM), was measured with a luminometer microplate reader (CHAMELEON™V, Hidex, Turku, Finland).

[5] = molecular target: T1, P-gp; assay: Rhodamine 123 accumulation assay (P-gp activity, flow cytometry); format: cell-based; set-up: P-gp overexpressing multidrug resistant DLD1-TxR cells were selected by continuous exposure to stepwise increasing concentrations of paclitaxel from DLD1 cells; endogenous in cells; host or cells: NCI-H460/R and DLD1-TxR (drug-selected MDR human cancer cells); conditions: MDR NCI-H460/R and DLD1-TxR cells, 30 min, one concentration per compound (100 nM-10 µM), Figure 3a
Method: To study the effect of Hsp90 inhibitors on P-gp activity in MDR cancer cells, intracellular accumulation of the P-gp substrate rhodamine 123 (Rho 123) was analyzed by flow cytometry after 30 min treatment (Figure 3a). A well-known inhibitor of P-gp activity, tariquidar (TQ), was included as a positive control.
The accumulation of Rho 123, a fluorescent P-gp substrate, was measured by flow cytometry. The intensity of the fluorescence is proportional to Rho 123 accumulation in the cell. All cell lines were seeded in adherent 6-well plates and grown overnight. DLD1-TxR and NCI-H460/R cells were treated for 30 min with the following concentrations of Hsp90 inhibitors: 500 nM compound 3, 1 µM compound 4, 10 µM compound 5, 500 nM compound 6, 500 nM compound 7, 1 µM compound 8, 500 nM compound 9, 1 µM compound 10, 1 µM compound 13, 10 µM compound 14, 100 nM compound 15. TQ (10 nM) was used as a positive control for Rho 123 accumulation. Rho 123 (5 μM) was simultaneously added with the investigated compounds and the cells were incubated at 37 °C in 5% CO2 for 30 min. The cells were then trypsinized, pelleted by centrifugation, washed with PBS and placed in ice-cold PBS. The samples were kept on ice in the dark until the analysis on CyFlow Space Partec flow cytometer (Sysmex Partec GmbH, Görlitz, Germany). The fluorescence of Rho 123 was detected on fluorescence channel 1 (FL1-H) at 530 nm. A minimum of 10,000 events were collected for each sample and the obtained results were analyzed using Summit software.

[6] = molecular target: T1, P-gp; assay: as above; format: cell-based; set-up: P-gp overexpressing multidrug resistant DLD1-TxR cells were selected by continuous exposure to stepwise increasing concentrations of paclitaxel from DLD1 cells; endogenous in cells; host or cells: NCI-H460/R and DLD1-TxR (drug-selected MDR human cancer cells); conditions: NCI-H460/R and DLD1-TxR, 30 min, Figure 3b

O=C1c2ccccc2C(=O)c2c(-c3ccccc3O)noc21 [Compound 5]
IC50 [1]: 5720 ± 73 nM
IC50 [2]: 5680 ± 163 nM
IC50 [3]: 1550 nM
Effect on P-gp ATPase activity [4]: smallest effect on ATPase activity
P-gp activity / Rho 123 accumulation [5]: significant beneficial effect on P-gp inhibition; also recorded: most prominent effect in both MDR cell lines
Concentration dependence of P-gp inhibition (Rho 123 accumulation) [6]: concentration dependent effect

O=C1c2ccccc2C(=O)c2c(-c3cccnc3)noc21 [Compound 9]
IC50 [1]: 96 ± 2 nM
IC50 [2]: 45 ± 1 nM
IC50 [3]: 540 nM
Effect on P-gp ATPase activity [4]: significant inhibition
P-gp activity / Rho 123 accumulation [5]: most prominent effect in both MDR cell lines
Concentration dependence of P-gp inhibition (Rho 123 accumulation) [6]: concentration dependent effect

O=C1c2ccccc2C(=O)c2c(-c3ccncc3)noc21 [Compound 7]
IC50 [1]: 199 ± 5 nM
IC50 [2]: 156 ± 4 nM
IC50 [3]: 390 nM
Effect on P-gp ATPase activity [4]: potent dose-dependent inhibition
P-gp activity / Rho 123 accumulation [5]: most prominent effect in both MDR cell lines
Concentration dependence of P-gp inhibition (Rho 123 accumulation) [6]: concentration dependent effect
